Experimental data as given in US20180118682A1, “PHARMACEUTICAL COMPOSITION CONTAINING A TRYPTOPHAN DERIVATIVE” (Ramot at Tel-Aviv University Ltd., priority 2010, published 2018).
Converted amounts (≈) assume the structure as drawn.

Legend:
[1] = compatibility with ophthalmic excipients; format: physicochemical; details: aqueous solutions at pH 5.5
Excerpt: In the further series of tests, the compatibility of the compound (A) with other typical ophthalmic excipients was investigated.

[2] = tested on: retinal ganglion cell (RGC) apoptosis; assay: rat glaucoma model (chronic ophthalmic hypertension), RGC apoptosis; format: in vivo, male Dark Aguti rat; details: low doses, intravitreal; compared to vehicle; 3 and 6 weeks after OHT induction
Method: In a male Dark Aguti rat model, glaucoma is produced by injection of hypertonic saline into episcleral veins of one eye to induce increased ophthalmic pressure (chronic ophthalmic hypertension), while the opposite eye serves as a control. In treatment groups, various doses of compound (A) of the instant invention are injected intravitreally (in […] volume) at the time of glaucoma induction and in some groups the administration continues for following 7 days to see whether such extended treatment results in increased efficacy.
The extent of retinal ganglion cell (RGC) apoptosis at 3 weeks and 6 weeks after chronic ophthalmic hypertension (OHT) induction is assessed in each animal by dynamic confocal scanning laser ophthalmoscopy and fluorescent-labeled Annexin V.
Animals are sacrificed after 3 and 6 weeks and their eyes are enucleated and fixed in 4% para-formaldehyde overnight. Afterwards, retinas are separated for assessing apoptosis related changes, for example visualized with FITC Annexin V kit (BD Biosciences, Franklin Laker (USA).

[3] = aqueous solubility of compound (A) as a function of pH (UV-spectroscopy); format: physicochemical; details: for solubility: aqueous media, aqueous buffer, R-enantiomer used
Method: At acidic conditions, the solubility of the compound (A) is higher.
At alkaline pH-values, the solubility of the compound (A) is also better.
The solubility of the R-enantiomer of compound (A) was determined as a function of the pH-value by using UV-spectroscopy to quantify the concentration of the compound in a series of aqueous media.

[4] = equilibrium solubility in citrate buffer saline pH6 with cyclodextrins (shake flask method); format: physicochemical; details: citrate buffer saline with cyclodextrin, pH 6, aqueous with cosolvent or surfactant or cyclodextrin, thermodynamic from solid, read-out: Solubility of compound (A)
Method: The equilibrium solubility of compound (A) was tested in a citrate buffer saline at pH6 in presence of different cyclodextrins by the shake flask method.

[5] = equilibrium solubility in water at 20 °C with varying cyclodextrin content; format: physicochemical; details: thermodynamic from solid
Method: For testing the influence of the cyclodextrin content in ophthalmic formulations, the solubility of Compound (A) was tested.

[6] = octanol/water partition coefficient log P, pH-metric method (OECD draft guideline 122); format: physicochemical; details: titrated pH 1.9 to 10.9, 1.3 to 1.9 mM, various octanol/water ratios
Excerpt: The octanol/water partition coefficient log P of the compounds of the invention can be determined by accepted standard methods known to the person skilled in the art, such as OECD (1995), Test No. 107: Partition Coefficient (n-octanol/water): Shake Flask Method, OECD Guidelines for the Testing of Chemicals, Section 1: Physical-Chemical properties, OECD Publishing. doi: 10.1787/9789264069626-en.
The log P value may be determined according to the draft OECD guideline OECD (2000), OECD Draft guideline for the Testing of Chemicals: 122 Partition Coefficient (n-Octanol/Water): pH-Metric Method for Ionisable Substances. For Example, log P of compound (A) was investigated using OECD (2000) OECD Draft guideline for the Testing of Chemicals: 122. The sample was titrated in two triple titrations from pH 1.9 to pH 10.9 at concentrations of 1.3 to 1.9 mM in various ratios of octanol/water.

[7] = tested on: microorganisms (e.g. bacteria and fungi); assay: microbial preservation of ophthalmic formulations according to European and US pharmacopeia standards; format: cell-based; details: European standards (Pharmacopeia 7.0) and US-Pharmacopeia
Excerpt: It can be particularly difficult to preserve formulations against microorganisms (e.g. bacteria and fungi), if the formulation contains a cyclodextrin derivative.
From different tests it can be seen that a sufficient microbial preservation of ophthalmic formulations is not possible with benzalkonium chloride, cetrimide and chlorhexidine according to the European standards (Pharmacopeia 7.0) and US standards (US-Pharmacopeia).

[8] = tested on: Candida albicans; assay: preservation of ophthalmic formulation against Candida albicans; format: cell-based
Excerpt: (§1) For testing of the long term preservation of the ophthalmic formulations with metal-containing preservatives, the pharmaceutical compositions VI of example 4 was modified by adding thiomersal in a concentration of 0.01% by weight in the aqueous formulation.

[9] = tested on: Staphylococcus aureus; assay: preservation of ophthalmic formulation against Staphylococcus aureus; format: cell-based
Excerpt: as §1

[10] = tested on: Pseudomonas aeruginosa; assay: preservation of ophthalmic formulation against Pseudomonas aeruginosa; format: cell-based
Excerpt: as §1

[11] = tested on: Aspergillus niger; assay: preservation of ophthalmic formulation against Aspergillus niger; format: cell-based
Excerpt: as §1

[12] = 0.001 to 0.01% by weight in the aqueous formulation
[13] = composition VI with thiomersal 0.01% by weight, after 28 days

## CC(C)(NC(=O)C(N)Cc1c[nH]c2ccccc12)C(=O)O (stereo not drawn) [compound (A), 2-[2-Amino-3-(1H-indol-3-yl)-propionylamino]-2-methyl-propionic acid]
[1]
  compatibility with further components (F) (hypromellose, carbomer, Gellan gum, preservatives): no incompatibilities
[2]
  RGC apoptosis: strong decrease
[3]; pH 4.6
  solubility: ~14 mg/mL (≈ 48.4 mM)
[3]; pH 6
  solubility: ~10 mg/mL (≈ 34.6 mM)
[3]; pH 7
  solubility: ~10 mg/mL (≈ 34.6 mM)
[3]; pH 7.2
  solubility: ~14 mg/mL (≈ 48.4 mM)
[3]; at acidic conditions
  solubility (in words): higher
[3]; at alkaline pH-values
  solubility (in words): better
[3]; from pH 4.5 to 7
  solubility (in words): particularly low
[4]; 100 mg/ml ACD (α-Cyclodextrin, Fluka)
  solubility: 12.7 mg/mL (≈ 43.9 mM)
[4]; 110 mg/ml HPBCD (Kleptose HPB, Roquette)
  solubility: 27.9 mg/mL (≈ 96.4 mM)
[4]; 110 mg/ml HPGCD (Cavasol W8 HP Pharma, ISP)
  solubility: 16.2 mg/mL (≈ 56 mM)
[4]; 110 mg/ml MBCD (Kleptose Crysmeb, Roquette)
  solubility: 28.7 mg/mL (≈ 99.2 mM)
[5]; water without cyclodextrin
  solubility thermodynamic: 11.6 mg/mL (≈ 40.1 mM)
[5]; water with cyclodextrin (HPBCD), aqueous with cosolvent or surfactant or cyclodextrin, water containing 65 mg/ml cyclodextrin (HPBCD)
  solubility thermodynamic: 20.2 mg/mL
[5]; water with cyclodextrin, aqueous with cosolvent or surfactant or cyclodextrin, water containing 165 mg/ml cyclodextrin
  solubility thermodynamic: 41.2 mg/mL
[6]
  logP: < -1

## [H]/N=C(\N/C(=N/[H])NCCCCCCNC(=N)NC(=N)Nc1ccc(Cl)cc1)Nc1ccc(Cl)cc1 [chlorhexidine]
[7]
  sufficient microbial preservation of ophthalmic formulations: not possible

## C/C=C/C=C/C(=O)O [sorbic acid]
[8]; 0.3% by weight instead of thiomersal in composition VI, after 14 days
  preservation against Candida albicans: insufficient preservation

## cetrimide
[7]
  sufficient microbial preservation of ophthalmic formulations: not possible

## C[CH2][Hg][S]c1ccccc1C(=O)[O-].[Na+] [thiomersal]
[8]
  activity meeting the compendia requirements: sufficient activity
[8]; [12]
  duration of preservation: ≥ 28 days
[8]; [13]
  reduction of organism: ≥ 5 log
[9]
  activity meeting the compendia requirements: sufficient activity
[9]; [12]
  duration of preservation: ≥ 28 days
[9]; [13]
  reduction of organism: ≥ 5 log
[10]
  activity meeting the compendia requirements: sufficient activity
[10]; [12]
  duration of preservation: ≥ 28 days
[10]; [13]
  reduction of organism: ≥ 5 log
[11]
  activity meeting the compendia requirements: sufficient activity
[11]; [12]
  duration of preservation: ≥ 28 days
[11]; [13]
  reduction of organism: ≥ 5 log

## benzalkonium chloride
[7]
  sufficient microbial preservation of ophthalmic formulations: not possible
